According to patent US20260124226A1 (priority 2023, published 2026):
Values joined by “and” are separate entries in the source; they are usually repeats but may differ in a detail not shown here. Identical values can stand only once. Like-named read-outs stand apart in the source and are kept apart here.

Tests used:
[1] = tested on: CHIKV; assay: microbe, parasite or virus in culture; assay type: cell-based, Chikungunya virus
[2] = tested on: Lymphocytic choriomeningitis virus; assay: microbe, parasite or virus in culture; assay type: cell-based; conditions: Mammarenavirus choriomeningitidis, Vero
[3] = tested on: Pichinde virus; assay: microbe, parasite or virus in culture; assay type: cell-based; conditions: Vero
[4] = tested on: Tacaribe virus; assay: microbe, parasite or virus in culture; assay type: cell-based; conditions: for EC50: Tacaribe virus strain TRVL 11573, Vero cells
[5] = tested on: Flu A H3N2; assay: microbe, parasite or virus in culture; assay type: cell-based, influenza A virus; conditions: Influenza A virus, H3N2, MDCK
[6] = tested on: DENV2; assay: microbe, parasite or virus in culture; assay type: cell-based, Dengue virus 2; conditions: Dengue virus, DENV2, Huh-7
[7] = tested on: Enterovirus-68; assay: microbe, parasite or virus in culture; assay type: cell-based, EV-D68
[8] = tested on: A549; assay: EIDD-2749 cytotoxicity; assay type: cell-based; conditions: A549 cells
[9] = tested on: H9c-2; assay: EIDD-2749 cytotoxicity; assay type: cell-based; conditions: H9c-2 cells
[10] = tested on: IEC-6; assay: EIDD-2749 cytotoxicity; assay type: cell-based; conditions: IEC-6 cells
[11] = tested on: Vero 76 cells; conditions: African green monkey
[12] = tested on: RD cells; conditions: human
[13] = Mouse PK (plasma, IP and oral); conditions: female, ICR (CD-1)
[14] = Mammarenavirus tacaribeense, Vero

For `O=c1ccn([C@@H]2O[C@](F)(CO)[C@@H](O)[C@H]2O)c(=O)[nH]1` [EIDD-2749, 4′-fluorouridine], the EC50 [1] was 2.05 µM and 3.42 µM, the EC50 ([1]; Chikungunya virus, Vero 76) was 1.98 µM and the EC90 ([1]; Chikungunya virus, Vero 76) was 9.12 µM. It also gave an EC90 [2] of 7.22 µM, an EC90 [3] of 0.19 µM and an EC90 [4, 14] of 0.87 µM. The EC50 [4, 14] was < 0.38 µM, the EC50 [4] was 0.34 µM and the EC50 [5] was < 0.38 µM. The EC50 [6] was > 380 µM, the EC50 [7] was 11.8 µM and the EC50 ([7]; Enterovirus D, RD) was 13.7 µM. For the same compound, the CC50 [8] was > 400 µM, the CC50 [9] was > 400 µM and the CC50 [10] was 372 µM. For the same compound, the CC50 [11] was > 380 µM, the CC50 [12] was > 380 µM and the concentration at 24 h ([13]; ip, 10 mg/kg) was 0.75 ± 0.1 µM. For the same compound, the concentration at 24 h ([13]; po, 50 mg/kg) was 2.8 ± 1.1 µM, the concentration at 24 h ([13]; po, 150 mg/kg) was 3.4 ± 1.3 µM and the concentration at 24 h ([13]; po, 500 mg/kg) was 9.8 ± 4.2 µM.
